Measured values as given in publication PMC12377202, “Design, synthesis, and cytotoxic evaluation of quinazoline-based derivatives as VEGER-2 inhibitors: comparative study against EGFR kinase activity, induction of apoptosis, and molecular docking study” (RSC Advances, 2025).

What was measured:
[1] = system: MCF-7; test: MTT anti-proliferative assay, MCF-7; type: cell-based, human; conditions: Homo sapiens, MCF7
[2] = system: HepG-2; test: MTT anti-proliferative assay, HepG-2; type: cell-based, human; conditions: Homo sapiens, HepG2
[3] = system: K-562; test: MTT anti-proliferative assay, K-562; type: cell-based, human; conditions: Homo sapiens, K562
[4] = MTT cytotoxicity against normal cells; type: cell-based, human; conditions: human
[5] = system: HEK-293; test: MTT cytotoxicity against normal cells; type: cell-based, human
[6] = system: HepG-2 cells; test: Cell cycle analysis (PI staining, flow cytometry); type: cell-based, human
Method: In order to cause cytotoxicity, anticancer medicines must stop cell division at specific checkpoints, which are discrete stages of the cell cycle.
Propidium iodide (PI) staining and flow cytometry analysis[74,75] were used to analyze the cell cycle for derivatives 8a and 9a, as illustrated in the SI.
(§1) through Flow cytometric analysis.
(§2) Pellets were collected again and incubated with
(§3) Total RNA from vehicle-treated
(§4) (Thermo Scientific, USA).
(§5) All experiments were performed in […]

[7] = system: caspase-3; test: Caspase-3 expression level in HepG-2 cells; type: cell-based, human; conditions: for Caspase-3 ± SE: HepG-2, at IC50 concentrations, control 0.460
Method: (§6) All synthesized compounds were tested at their cytotoxic concentrations in HepG-2 cells for analysis of gene expression levels of apoptotic markers caspase-3, caspase-9, TNF-α, and IL-6 proteins, and only two active compounds were tested for BAX and Bcl-2 proteins.
as §1, §2, §3, §4, §5

[8] = system: caspase-9; test: Caspase-9 expression level in HepG-2 cells; type: cell-based, human; conditions: for Caspase-9 ± SE: HepG-2, at IC50 concentrations, control 11.01
Method: as §6, §1, §2, §3, §4, §5

[9] = system: TNF-alpha; test: TNF-alpha level in HepG-2 cells; type: cell-based, human; conditions: control 43.48
Method: as §6, §1, §2, §3, §4, §5

[10] = system: IL-6R; test: IL-6R level in HepG-2 cells; type: cell-based, human
Method: as §6, §1, §2, §3, §4, §5

[11] = target: EGFR (Homo sapiens, UniProt P00533); test: EGFR kinase inhibition assay (ELISA kit)
Sequence of EGFR (P00533 25-1210): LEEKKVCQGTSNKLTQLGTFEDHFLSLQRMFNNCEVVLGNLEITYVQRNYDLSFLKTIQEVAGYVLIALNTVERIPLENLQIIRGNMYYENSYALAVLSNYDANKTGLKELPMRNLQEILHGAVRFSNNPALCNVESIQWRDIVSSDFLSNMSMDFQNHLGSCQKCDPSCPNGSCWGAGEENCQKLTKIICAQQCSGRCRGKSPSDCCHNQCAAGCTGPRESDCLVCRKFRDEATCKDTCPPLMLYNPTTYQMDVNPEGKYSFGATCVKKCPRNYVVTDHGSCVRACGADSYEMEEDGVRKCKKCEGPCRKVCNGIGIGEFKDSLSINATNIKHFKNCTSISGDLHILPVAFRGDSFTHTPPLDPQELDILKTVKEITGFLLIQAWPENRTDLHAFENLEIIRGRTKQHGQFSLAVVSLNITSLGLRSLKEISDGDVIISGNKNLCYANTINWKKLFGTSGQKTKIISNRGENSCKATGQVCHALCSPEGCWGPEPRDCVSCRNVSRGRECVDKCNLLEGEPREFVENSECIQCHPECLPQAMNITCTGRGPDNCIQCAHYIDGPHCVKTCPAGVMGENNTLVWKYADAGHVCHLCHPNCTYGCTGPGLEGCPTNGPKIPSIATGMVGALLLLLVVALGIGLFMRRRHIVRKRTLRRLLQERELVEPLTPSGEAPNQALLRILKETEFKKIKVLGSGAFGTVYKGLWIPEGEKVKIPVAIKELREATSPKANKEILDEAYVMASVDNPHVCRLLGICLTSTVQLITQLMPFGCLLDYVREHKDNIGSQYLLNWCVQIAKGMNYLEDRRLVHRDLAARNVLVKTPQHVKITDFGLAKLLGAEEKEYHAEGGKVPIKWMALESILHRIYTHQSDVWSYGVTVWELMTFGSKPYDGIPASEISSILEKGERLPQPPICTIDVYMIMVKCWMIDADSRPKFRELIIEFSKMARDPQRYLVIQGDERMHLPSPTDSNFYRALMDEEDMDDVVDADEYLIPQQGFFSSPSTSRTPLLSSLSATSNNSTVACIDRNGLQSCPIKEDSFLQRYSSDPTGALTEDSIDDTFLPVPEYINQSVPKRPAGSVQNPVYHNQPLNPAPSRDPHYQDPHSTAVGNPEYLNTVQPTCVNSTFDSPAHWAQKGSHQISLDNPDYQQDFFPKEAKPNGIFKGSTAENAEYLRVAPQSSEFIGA

[12] = target: VEGFR-2 (Homo sapiens, UniProt P35968); test: In vitro VEGFR-2 inhibitory assay (ELISA kit); conditions: VEGFR-2 kinase
Sequence of VEGFR-2 (P35968 20-1356): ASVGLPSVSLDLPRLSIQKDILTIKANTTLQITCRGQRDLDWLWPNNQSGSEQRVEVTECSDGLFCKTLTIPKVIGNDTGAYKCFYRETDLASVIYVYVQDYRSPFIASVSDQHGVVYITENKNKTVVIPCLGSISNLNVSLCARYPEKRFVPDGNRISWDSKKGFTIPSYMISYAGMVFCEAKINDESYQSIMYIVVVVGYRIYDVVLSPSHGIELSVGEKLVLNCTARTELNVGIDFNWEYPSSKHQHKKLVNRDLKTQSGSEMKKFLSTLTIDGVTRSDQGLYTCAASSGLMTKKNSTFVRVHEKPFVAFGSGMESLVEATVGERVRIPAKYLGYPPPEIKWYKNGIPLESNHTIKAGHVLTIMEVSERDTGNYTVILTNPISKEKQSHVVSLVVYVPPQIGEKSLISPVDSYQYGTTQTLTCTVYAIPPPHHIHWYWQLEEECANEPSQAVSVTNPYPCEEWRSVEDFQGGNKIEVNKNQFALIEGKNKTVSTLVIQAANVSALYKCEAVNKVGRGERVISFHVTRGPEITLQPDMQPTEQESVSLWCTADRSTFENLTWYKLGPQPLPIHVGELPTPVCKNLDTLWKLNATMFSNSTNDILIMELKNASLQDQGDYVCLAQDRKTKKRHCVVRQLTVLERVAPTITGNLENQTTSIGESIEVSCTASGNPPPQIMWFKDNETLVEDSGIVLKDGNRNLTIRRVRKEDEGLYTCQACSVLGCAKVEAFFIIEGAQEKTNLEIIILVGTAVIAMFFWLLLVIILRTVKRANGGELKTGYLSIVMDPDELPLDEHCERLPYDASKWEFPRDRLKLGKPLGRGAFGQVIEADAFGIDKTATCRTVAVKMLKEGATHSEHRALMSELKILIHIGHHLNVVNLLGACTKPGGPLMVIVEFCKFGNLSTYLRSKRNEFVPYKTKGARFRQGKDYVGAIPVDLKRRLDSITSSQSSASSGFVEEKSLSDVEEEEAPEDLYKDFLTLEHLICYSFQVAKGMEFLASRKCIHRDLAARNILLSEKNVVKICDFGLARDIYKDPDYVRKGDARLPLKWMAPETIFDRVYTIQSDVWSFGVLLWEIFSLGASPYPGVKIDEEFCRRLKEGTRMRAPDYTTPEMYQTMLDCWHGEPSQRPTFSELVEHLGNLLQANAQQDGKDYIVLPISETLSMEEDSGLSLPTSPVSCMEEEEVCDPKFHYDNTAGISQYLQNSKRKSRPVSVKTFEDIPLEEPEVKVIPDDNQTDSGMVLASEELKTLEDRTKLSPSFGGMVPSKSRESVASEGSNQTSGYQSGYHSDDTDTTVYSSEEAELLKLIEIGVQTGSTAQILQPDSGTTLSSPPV

O=C(Cn1cnc2cc([N+](=O)[O-])ccc2c1=O)Nc1ccccc1Cl [9b, N-(2-Chlorophenyl)-2-(7-nitro-4-oxoquinazolin-3(4H)-yl)acetamide]
viability at 0.195 µmol ([1]; MCF-7, 0.195 umol): 52.1% | cytotoxicity at 0.195 µmol ([1]; MCF-7, 0.195 umol, read-out: Toxicity %): 47.9% | viability at 0.391 µmol ([1]; MCF-7, 0.391 umol): 22.7% | cytotoxicity at 0.391 µmol ([1]; MCF-7, 0.391 umol, read-out: Toxicity %): 77.3% | viability at 0.781 µmol ([1]; MCF-7, 0.781 umol): 15.6% | cytotoxicity at 0.781 µmol ([1]; MCF-7, 0.781 umol, read-out: Toxicity %): 84.4% | viability at 1.563 µmol ([1]; MCF-7, 1.563 umol): 11.9% | cytotoxicity at 1.563 µmol ([1]; MCF-7, 1.563 umol, read-out: Toxicity %): 88.1% | viability at 3.125 µmol ([1]; MCF-7, 3.125 umol): 9.45% | cytotoxicity at 3.125 µmol ([1]; MCF-7, 3.125 umol, read-out: Toxicity %): 90.5% | viability at 6.25 µmol ([1]; MCF-7, 6.25 umol): 8% | cytotoxicity at 6.25 µmol ([1]; MCF-7, 6.25 umol, read-out: Toxicity %): 92% | viability at 12.5 µmol ([1]; MCF-7, 12.5 umol): 7.26% | cytotoxicity at 12.5 µmol ([1]; MCF-7, 12.5 umol, read-out: Toxicity %): 92.7% | viability at 25 µmol ([1]; MCF-7, 25 umol): 6.77% | cytotoxicity at 25 µmol ([1]; MCF-7, 25 umol, read-out: Toxicity %): 93.2% | IC50 ([1]; MTT, MCF-7, read-out: Cytotoxicity against cancer cells IC50 MCF-7): 209 ± 3.7 nM | viability at 0.195 µg/mL ([2]; HepG-2, 0.195 ug/ml): 49.7% | cytotoxicity at 0.195 µg/mL ([2]; HepG-2, 0.195 ug/ml, read-out: Toxicity %): 50.3% | viability at 0.391 µg/mL ([2]; HepG-2, 0.391 ug/ml): 37.3% | cytotoxicity at 0.391 µg/mL ([2]; HepG-2, 0.391 ug/ml, read-out: Toxicity %): 62.7% | viability at 0.781 µg/mL ([2]; HepG-2, 0.781 ug/ml): 27.7% | cytotoxicity at 0.781 µg/mL ([2]; HepG-2, 0.781 ug/ml, read-out: Toxicity %): 72.3% | viability at 1.563 µg/mL ([2]; HepG-2, 1.563 ug/ml): 13% | cytotoxicity at 1.563 µg/mL ([2]; HepG-2, 1.563 ug/ml, read-out: Toxicity %): 87% | viability at 3.125 µg/mL ([2]; HepG-2, 3.125 ug/ml): 9.93% | cytotoxicity at 3.125 µg/mL ([2]; HepG-2, 3.125 ug/ml, read-out: Toxicity %): 90.1% | viability at 6.25 µg/mL ([2]; HepG-2, 6.25 ug/ml): 7.8% | cytotoxicity at 6.25 µg/mL ([2]; HepG-2, 6.25 ug/ml, read-out: Toxicity %): 92.2% | viability at 12.5 µg/mL ([2]; HepG-2, 12.5 ug/ml): 6.7% | cytotoxicity at 12.5 µg/mL ([2]; HepG-2, 12.5 ug/ml, read-out: Toxicity %): 93.3% | viability at 25 µg/mL ([2]; HepG-2, 25 ug/ml): 5.93% | cytotoxicity at 25 µg/mL ([2]; HepG-2, 25 ug/ml, read-out: Toxicity %): 94.1% | IC50 ([2]; MTT, HepG-2, read-out: Cytotoxicity against cancer cells IC50 HepG-2): 194 ± 6.6 nM | viability at 0.195 µmol ([3]; K-562, 0.195 umol): 47.5% | cytotoxicity at 0.195 µmol ([3]; K-562, 0.195 umol, read-out: Toxicity %): 52.5% | viability at 0.391 µmol ([3]; K-562, 0.391 umol): 37.8% | cytotoxicity at 0.391 µmol ([3]; K-562, 0.391 umol, read-out: Toxicity %): 62.2% | viability at 0.781 µmol ([3]; K-562, 0.781 umol): 25.5% | cytotoxicity at 0.781 µmol ([3]; K-562, 0.781 umol, read-out: Toxicity %): 74.5% | viability at 1.563 µmol ([3]; K-562, 1.563 umol): 13.6% | cytotoxicity at 1.563 µmol ([3]; K-562, 1.563 umol, read-out: Toxicity %): 86.4% | viability at 3.125 µmol ([3]; K-562, 3.125 umol): 8.05% | cytotoxicity at 3.125 µmol ([3]; K-562, 3.125 umol, read-out: Toxicity %): 92% | viability at 6.25 µmol ([3]; K-562, 6.25 umol): 8.5% | cytotoxicity at 6.25 µmol ([3]; K-562, 6.25 umol, read-out: Toxicity %): 91.5% | viability at 12.5 µmol ([3]; K-562, 12.5 umol): 6.86% | cytotoxicity at 12.5 µmol ([3]; K-562, 12.5 umol, read-out: Toxicity %): 93.1% | viability at 25 µmol ([3]; K-562, 25 umol): 6.2% | cytotoxicity at 25 µmol ([3]; K-562, 25 umol, read-out: Toxicity %): 93.8% | IC50 ([3]; MTT, K-562, read-out: Cytotoxicity against cancer cells IC50 K-562): 190 ± 3.7 nM | IC50 at 3 days ([4]; HEK-293 cells (normal human embryonic kidney cells), MTT, HEK-293, read-out: Cytotoxicity against normal cell IC50 HEK-293): 1747 ± 2.6 nM | viability at 3 days, 0.195 umol/ml ([4]; HEK-293 cells (normal human embryonic kidney), HEK-293, 0.195 umol/ml): 98.1% | viability at 3 days, 0.391 umol/ml ([4]; HEK-293 cells (normal human embryonic kidney), HEK-293, 0.391 umol/ml): 76.9% | viability at 3 days, 0.781 umol/ml ([4]; HEK-293 cells (normal human embryonic kidney), HEK-293, 0.781 umol/ml): 62.1% | viability at 3 days, 1.563 umol/ml ([4]; HEK-293 cells (normal human embryonic kidney), HEK-293, 1.563 umol/ml): 52.7% | viability at 3 days, 3.125 umol/ml ([4]; HEK-293 cells (normal human embryonic kidney), HEK-293, 3.125 umol/ml): 29.7% | viability at 3 days, 6.25 umol/ml ([4]; HEK-293 cells (normal human embryonic kidney), HEK-293, 6.25 umol/ml): 17.2% | viability at 3 days, 12.5 umol/ml ([4]; HEK-293 cells (normal human embryonic kidney), HEK-293, 12.5 umol/ml): 8.78% | viability at 3 days, 25 umol/ml ([4]; HEK-293 cells (normal human embryonic kidney), HEK-293, 25 umol/ml): 6.3% | Toxicity % ([5]; HEK-293, 0.195 umol/ml): 1.903% | Toxicity % ([5]; HEK-293, 0.391 umol/ml): 23.13% | Toxicity % ([5]; HEK-293, 0.781 umol/ml): 37.87% | Toxicity % ([5]; HEK-293, 1.563 umol/ml): 47.29% | Toxicity % ([5]; HEK-293, 3.125 umol/ml): 70.33% | Toxicity % ([5]; HEK-293, 6.25 umol/ml): 82.82% | Toxicity % ([5]; HEK-293, 12.5 umol/ml): 91.22% | Toxicity % ([5]; HEK-293, 25 umol/ml): 93.7% | selectivity, cancer cells vs normal human kidney cells (fold) ([5]; HEK-293 vs K-562): 9 fold | selectivity, cancer cells vs normal human kidney cells (fold) ([5]; HEK-293 vs MCF-7): 8.4 fold | IC50 ([5]; Homo sapiens, HEK293, raw data, HEK-293): 1750 nM | % Sub-G1 ([6]; HepG-2, cytotoxic concentration, 24 h, control 68.12): 94.68% | % S ([6]; HepG-2, control 2.23): 0.19% | % G2/M ([6]; HepG-2, control 6.52): 0.24% | % G1 ([6]; HepG-2, control 23.14): 4.89% | Caspase-3 ± SE [7]: 1.08 ± 0.028 ng/mL | Caspase-3 ± SE ([7]; listed as N5): 1.08 ng/mL | caspase-3 expression level, fold increase ([7]; HepG-2, vs control cells): 2.35 fold | Caspase-9 ± SE [8]: 7.31 ± 0.93 ng/L | Caspase-9 ± SE ([8]; listed as N5): 7.31 ng/L | caspase-9 expression level, fold increase ([8]; HepG-2, vs control cells): no apoptotic effect | TNF-alpha ±SE ([9]; HepG-2, at IC50 concentrations): 27.34 ± 1.95 ng/L | TNF-alpha ±SE ([9]; raw data, HepG2): 14.37 ng/L | IL-6R ± SE ([10]; HepG-2, at IC50 concentrations, control 44.10): 28.78 ± 1.23 ng/L | IL-6R protein level ([10]; HepG-2, control 44.10%): 28.78 ng/L | IL-6 ±SE ([10]; raw data, HepG2, control 44.10): 19.54 ng/L | Activity % ([11]; HepG2): 52.262% | Inhibition % ([11]; HepG2): 47.738% | Activity % ([11]; K-562): 47.456% | Inhibition % ([11]; K-562): 52.544% | Activity % ([11]; MCF7): 25.292% | Inhibition % ([11]; MCF7): 74.708% | Activity % ([12]; HepG2): 33.564% | Inhibition % ([12]; HepG2): 66.436% | Activity % ([12]; K-562): 56.948% | Inhibition % ([12]; K-562): 43.052% | Activity % ([12]; MCF7): 80.680% | Inhibition % ([12]; MCF7): 19.320%
